Assay [1] deals with Jurkat cell (ATCC TIB-152). Description: Jurkat cell apoptosis induced by Fas antibody, WST-1 method. It is filed as cell-based. The note with it: Homo sapiens, amount of alive Jurkat cells by WST-1. Here is the method: The […] inhibitory activity of the inhibitors was determined by subjecting Jurkat cell (ATCC TIB-152) to apoptosis using Fas antibody (Upstate Biotech 05-201) and by detecting the color change according to the WST-1 method known in Francoeur A. M. and Assalian A. (1996) Biochemica 3, 19-25 to observe the amount of alive Jurkat cells when the cells were treated by the inhibitor. Spectra MAX 340 Spectrometer of Molecular Device Co. was used at the absorbance wavelength of 440 nm.
(In general: Tetrazolium dyes change colour on reduction, which living cells bring about.)

A further assay addresses T1, caspase-8 (Homo sapiens, UniProt Q14790).
T1 construct: p10 and p20 subunits (Thornberry, N. A. et al, Nature, 1992, 356, 768) were expressed in E. coli; made in house; host or cells: E. coli
Description: Assay for the caspase inhibitory effect (fluorescent substrate AcDEVD-AFC). It is filed as biochemical. The note with it: pH 7.5; 2.1 nM caspase-8, 50 μM AcDEVD-AFC, 25° C., pH 7.50; read-out: Caspase-8 Kobs/[I] (converted). The protocol:
Caspase-1 and caspase-8 known as cysteine proteases in the form of α2β2 were expressed, purified, and activated by modifying a method known in Thornberry, N. A. et al, Nature, 1992, 356, 768; Thornberry, N. A. Methods in Enzymology, 1994, 244, 615; Walker, N. P. C. et al. Cell, 1994, 78, 343, and caspase-9 was also purified by a similar method, and the inhibitory activity against them was tested. Briefly describing, p10 and p20 subunits (Thornberry, N. A. et al, Nature, 1992, 356, 768) were expressed in E. coli and purified by nickel column and anionic exchange chromatography to give caspase-1, caspase-8 and caspase-9. The fluorescent substrates AcYVAD-AFC for thus obtained caspase-1, AcDEVD-AFC for caspase-8, and AcLEHD-AFC for caspase-9, were used for determining specific activity of the synthesized inhibitors. The enzyme reaction was carried cut at 25° C. with various concentrations of the inhibitors in a buffer solution containing 50 mM HEPES(pH 7.50), 10% (w/v) sucrose, 0.1% (w/v) CHAPS, 100 mM NaCl, 1 mM EDTA, and 10 mM DTT in the presence of 50 μM AcYVAD-AFC for 10 nM caspase-1, 50 μM AcDEVD-AFC for 2.1 nM caspase-8, and 150 μM AcLEHD-AFC for 200 nM caspase-9. The inhibitory constants Ki and Kobs of the inhibitors were determined by measuring the reaction velocity with the time lapse using a fluorescent spectrometer and by obtaining the initial rate constant. Ki was calculated from the Lineweaver Burk Plot, and Kobs from the following Equation 1.
Kobs=−ln (1−At/Aoo)/t [Equation 1]
At means cleavage rate (%) at time t, and
Aoo means the maximum cleavage rate (%).
Spectra MAX GeminiXS Fluorescent Spectrometer of Molecular Device Co. W is used at the excitation wavelength of 405 nm and the emission wavelength of 505 nm.

This note sets out measurements from patent publication US20100016376A1, “CASPASE INHIBITORS BASED ON PYRIDONE SCAFFOLD” (LG Life Sciences Ltd., priority 2006, published 2010).

T1 sequence (Q14790 217-374 limits assumed, species assumed): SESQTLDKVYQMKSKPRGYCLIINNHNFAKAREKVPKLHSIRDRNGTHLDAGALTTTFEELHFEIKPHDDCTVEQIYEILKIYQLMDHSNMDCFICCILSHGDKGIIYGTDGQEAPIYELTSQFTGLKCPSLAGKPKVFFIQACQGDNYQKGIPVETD
T1 sequence (Q14790 385-479 limits assumed, species assumed): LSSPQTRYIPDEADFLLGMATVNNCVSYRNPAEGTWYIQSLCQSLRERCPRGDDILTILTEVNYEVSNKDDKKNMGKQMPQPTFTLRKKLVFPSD

On to `CCC(C(=O)NC(CC(=O)O)C(=O)CF)c1cccn(Cc2ccccc2)c1=O` (stereo not drawn) [Example 5, 3-[2-(1-Benzyl-2-oxo-1,2-dihydro-pyridin-3-yl)-butyrylamino]-5-fluoro-4-oxo-pentanoic acid], for which the half-inhibitory concentration (IC50) (in general, the point on the concentration scale where inhibition reaches its midpoint) in assay [1] amounted to 0.81 µM. Also, the kinact/KI at caspase-8 is 16700 M⁻¹ s⁻¹.
For `CC(C)C(C(=O)NC(CC(=O)O)C(=O)CF)c1cccn(Cc2ccccc2)c1=O` (stereo not drawn) [Example 6, 3-[2-(1-Benzyl-2-oxo-1,2-dihydro-pyridin-3-yl)-3-methyl-butyrylamino]-5-fluoro-4-oxo-pentanoic acid], in that order: 2.16 µM and 3500 M⁻¹ s⁻¹.
In the same order, the values of `CCC(C(=O)NC(CC(=O)O)C(=O)CF)c1cccn(Cc2ccccc2C(C)(C)C)c1=O` (stereo not drawn) [Example 8, 3-{2-[1-(2-tert-Butyl-benzyl)-2-oxo-1,2-dihydro-pyridin-3-yl]-butyrylamino}-5-fluoro-4-oxo-pentanoic acid] are 0.18 µM and 33300 M⁻¹ s⁻¹.
Compound `CCC(C(=O)NC(CC(=O)O)C(=O)CF)c1c(C)ccn(-c2ccccc2)c1=O` (stereo not drawn) [Example 1, 5-Fluoro-3-[2-(4-methyl-2-oxo-1-phenyl-1,2-dihydro-pyridin-3-yl)-butyrylamino]-4-oxo-pentanoic acid] had a 50% inhibitory concentration (IC50) in assay [1] of 4.9 µM. The kinact/KI at caspase-8 was 467 M⁻¹ s⁻¹.
For `CCC(C(=O)NC(CC(=O)O)C(=O)CF)c1c(C)ccn(CC(C)C)c1=O` (stereo not drawn) [Example 4, 5-Fluoro-3-[2-(1-isobutyl-4-methyl-2-oxo-1,2-dihydro-pyridin-3-yl)-butyrylamino]-4-oxo-pentanoic acid], in that order: 0.39 µM and 733 M⁻¹ s⁻¹.
Consider `CCCC(C(=O)NC(CC(=O)O)C(=O)CF)c1cccn(Cc2ccccc2)c1=O` (stereo not drawn) [Example 7, 3-[2-(1-Benzyl-2-oxo-1,2-dihydro-pyridin-3-yl)-pentanoylamino]-5-fluoro-4-oxo-pentanoic acid], for which the half-maximal inhibitory concentration (IC50) in assay [1] amounted to 0.64 µM. Further, on caspase-8, the kinact/KI was 6670 M⁻¹ s⁻¹.
Consider `CCC(C(=O)NC(CC(=O)O)C(=O)CF)c1c(C)ccn(CCc2ccccc2)c1=O` (stereo not drawn) [Example 3, 5-Fluoro-3-[2-(4-methyl-2-oxo-1-phenethyl-1,2-dihydro-pyridin-3-yl)-butyrylamino]-4-oxo-pentanoic acid], for which the kinact/KI on caspase-8 was 750 M⁻¹ s⁻¹.
With `CCC(C(=O)NC(CC(=O)O)C(=O)CF)c1c(C)ccn(Cc2ccccc2)c1=O` (stereo not drawn) [Example 2, 3-[2-(1-Benzyl-4-methyl-2-oxo-1,2-dihydro-pyridin-3-yl)-butyrylamino]-5-fluoro-4-oxo-pentanoic acid], the 50% inhibitory concentration (IC50) in assay [1] came to 2.43 µM. For the same compound, the kinact/KI at caspase-8 was 1830 M⁻¹ s⁻¹.
